Assay [1] in a line: NIH3T3 cell viability loss – ATP luminescence, mouse fibroblasts, counter-screen, dose response (AID 2010).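 Note: cells exposed to compound for about 90 hours before reading.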 It is filed as functional, cell-based.
Assay [2] concerns the target T1, DNA repair protein RAD52 homolog (Homo sapiens, UniProt P43351).
T1 sequence (P43351 whole entry): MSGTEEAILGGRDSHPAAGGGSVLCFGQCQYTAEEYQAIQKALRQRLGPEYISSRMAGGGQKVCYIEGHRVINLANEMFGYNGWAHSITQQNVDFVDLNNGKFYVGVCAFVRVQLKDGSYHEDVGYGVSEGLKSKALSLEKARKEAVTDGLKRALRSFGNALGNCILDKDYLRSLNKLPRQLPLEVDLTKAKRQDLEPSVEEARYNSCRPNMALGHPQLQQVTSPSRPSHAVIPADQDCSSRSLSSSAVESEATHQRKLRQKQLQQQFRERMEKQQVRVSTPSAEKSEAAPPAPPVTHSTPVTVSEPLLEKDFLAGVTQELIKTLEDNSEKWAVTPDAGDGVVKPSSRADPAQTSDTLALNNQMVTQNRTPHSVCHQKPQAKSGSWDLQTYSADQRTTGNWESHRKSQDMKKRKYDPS
It is filed as functional, biochemical.

The subject of the next assay is Vero. The assay can be described thus: cells. Type of assay: functional. As to conditions: Chlorocebus sabaeus.
Assay [3] is described as follows: Trypanosoma cruzi growth suppression in host cells – NIH3T3 host cells, beta-gal luminescence, confirmation (AID 2044).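 Note: intracellular parasites grown in NIH/3T3 mouse fibroblasts as host cells; luminescent beta-galactosidase reporter signal from transgenic T. cruzi replicating inside host cells; inhibitors lower the luminescence signal.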 It is filed as functional, cell-based.
Assay [4] concerns the target T2, DNA repair and recombination protein RAD54-like (Homo sapiens, UniProt Q92698).
T2 sequence (Q92698 whole entry): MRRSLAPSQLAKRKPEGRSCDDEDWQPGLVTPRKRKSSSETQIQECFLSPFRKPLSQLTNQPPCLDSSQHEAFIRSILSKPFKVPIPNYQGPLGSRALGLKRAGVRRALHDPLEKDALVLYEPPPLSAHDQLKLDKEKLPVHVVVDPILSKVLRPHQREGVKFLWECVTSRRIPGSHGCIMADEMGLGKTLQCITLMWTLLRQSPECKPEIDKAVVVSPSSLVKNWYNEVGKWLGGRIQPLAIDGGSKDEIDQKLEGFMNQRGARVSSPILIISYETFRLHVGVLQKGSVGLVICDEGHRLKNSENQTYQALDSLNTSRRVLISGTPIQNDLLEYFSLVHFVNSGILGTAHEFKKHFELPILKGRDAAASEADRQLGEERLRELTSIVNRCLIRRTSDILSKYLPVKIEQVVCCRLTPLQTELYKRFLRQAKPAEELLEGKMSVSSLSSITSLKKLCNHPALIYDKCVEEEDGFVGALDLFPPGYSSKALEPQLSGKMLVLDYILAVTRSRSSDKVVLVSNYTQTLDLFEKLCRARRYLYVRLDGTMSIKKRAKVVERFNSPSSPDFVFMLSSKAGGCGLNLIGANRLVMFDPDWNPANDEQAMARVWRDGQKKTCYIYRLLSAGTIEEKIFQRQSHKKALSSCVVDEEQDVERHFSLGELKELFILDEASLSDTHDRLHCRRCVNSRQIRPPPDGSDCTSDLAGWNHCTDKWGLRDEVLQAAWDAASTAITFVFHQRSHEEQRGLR
The assay can be described thus: RAD54 Holliday junction migration blockers – biochemical, fluorescence, cherry-picked samples, dose series, confirmation (AID 651657). It is filed as functional.

Assay [5] is described as follows: P. falciparum Dd2 growth inhibitors, dose response, SYBR Green, cherry-picked samples (AID 1159567). Type of assay: functional, cell-based.
The nature of assay [6]: growth inhibition of PfATP4-mutant resistant parasites – NITD609-resistant line, SYBR Green, dry powder, dose response (AID 1159571).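 Note: parasites synchronized at ring stage by sorbitol before testing.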 Type of assay: functional, cell-based.
Assay [7] is described as follows: growth inhibition of yeast DHODH-expressing 3D7 parasites – SYBR Green, dry powder samples, dose response (AID 1159570).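 Note: parasite growth measured after 72 hours of compound exposure.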 It is filed as functional, cell-based.
A short description of assay [8]: Dd2 malaria parasite growth inhibition potency – SYBR Green, dry powder samples, dose response (AID 1159566).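 Note: potency for growth inhibition with lower SYBR green DNA signal.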 Type of assay: functional, cell-based.
The nature of assay [9]: toxicity to human hepatoma HepG2 cells – cell-based, cherry-picked samples, cytotoxicity control, dose response (AID 1159577). Type of assay: functional.

Data on six compounds can be found in ChEMBL document CHEMBL1201862, “PubChem BioAssay data set” (2004).

SMILES strings stand for the structures. Activity calls are given as the source filed them.

On to `CN(C)CCCN(C(=O)c1ccco1)c1nc(-c2ccc(Cl)cc2)cs1`, for which the figures for the EC50 (in assay [1]; in [3]; in the assay “cells”) were > 60 µM (not active), < 100 nM (active) and 254 nM (active), respectively. Further, the AC50 is 17.3 µM (active) in [2] and 64.1 µM (active) in [4]. Also, the CC50 with Vero is > 25 µM (active).
Turning to `C[C@H](CO)N1C[C@H](C)[C@@H](CN(C)C(=O)Nc2cccc3ccccc23)Oc2ccc(NC(=O)Nc3ccc(C(F)(F)F)cc3)cc2C1=O`, the AC50 is 1.81 µM (active) in assay [5], 1.21 µM (active) in [6], 1.37 µM (active) in assay [7] and 1.44 µM (active) in assay [8].
Turning to `COc1ccc2c3c(n(C)c2c1)[C@@H](CO)N(C(=O)C1CCCC1)CC31CCN(C(=O)Nc2cccc(F)c2)CC1`, the AC50 is 0.672 µM (active) in [5], 0.239 µM (active) in [6], 0.0947 µM (active) in assay [7] and 0.418 µM (active) in assay [8].
As to `C[C@H](CO)N1C[C@H](C)[C@H](CN(C)C(=O)c2cc(Cl)cc(Cl)c2)OCc2ccccc2-c2c(n(C)c3ccccc23)C1=O`, the AC50 in assay [9] is > 39 µM (inactive); in assay [5], 4.11 µM (active).
For `CC(C)CC#Cc1ccc([C@H]2[C@H](CO)N3CCCCN(S(=O)(=O)Cc4ccccc4)C[C@@H]23)cc1` the same measures were 9.45 µM (active) and 4.8 µM (active).
The corresponding values for `C[C@@H]1CN([C@H](C)CO)C(=O)c2ccccc2-c2ccccc2CO[C@@H]1CN(C)Cc1ccccc1C(F)(F)F` are 15.7 µM (active) and 2.79 µM (active).

A word on the EC50: it is the concentration at which the effect is half-maximal. Broadly, the AC50 is the midpoint of the concentration-response curve, whichever way the signal moves. For orientation: CC50 means the concentration that lowers cell viability or growth by half.
